Biological target: T1, human P2X7 receptor (Homo sapiens, UniProt Q99572, R270H)
T1 construct: expressed in transfected cells
T1 sequence (Q99572 1-595 R270H): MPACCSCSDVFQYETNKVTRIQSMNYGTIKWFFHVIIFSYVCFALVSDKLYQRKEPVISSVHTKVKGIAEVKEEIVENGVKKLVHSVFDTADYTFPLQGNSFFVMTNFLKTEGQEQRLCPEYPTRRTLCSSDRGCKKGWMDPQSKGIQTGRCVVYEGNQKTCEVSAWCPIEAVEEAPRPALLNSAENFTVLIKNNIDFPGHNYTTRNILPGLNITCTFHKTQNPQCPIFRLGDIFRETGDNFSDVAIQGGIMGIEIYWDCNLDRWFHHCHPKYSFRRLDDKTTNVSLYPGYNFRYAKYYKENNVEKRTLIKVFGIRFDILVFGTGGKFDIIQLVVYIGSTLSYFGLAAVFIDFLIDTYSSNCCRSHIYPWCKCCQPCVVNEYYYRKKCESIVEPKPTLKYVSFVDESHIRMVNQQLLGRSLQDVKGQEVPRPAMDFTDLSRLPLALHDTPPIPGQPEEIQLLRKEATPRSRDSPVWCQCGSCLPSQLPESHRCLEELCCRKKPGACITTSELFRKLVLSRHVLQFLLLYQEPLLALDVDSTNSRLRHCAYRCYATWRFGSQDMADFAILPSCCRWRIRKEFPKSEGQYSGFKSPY
Experiment: Evaluation of a human P2X7 receptor inhibitory activity (Yo-Pro uptake, BzATP stimulation, FLIPR TETRA)
Assay type: cell-based
Conditions: antagonistic activity for the human P2X7 receptor, 1321N1 cell transfected with the human P2X7 receptor gene, Yo-Pro fluorescence
Method: Test Example 1 Evaluation of a Human P2X7 Receptor Inhibitory Activity
Stably expressing cell line (1321N1 cell transfected with the human P2X7 receptor gene (GenBank accession number NM_002562.5 including T606C and G952A SNP)) was used. The cells were seeded in a 384-well microtiter plate at a concentration of 8000 cells/well and cultured in the medium (10% fetal bovine serum, 25 mM HEPES, 1% penicillin and streptomycin in DMEM) for one day at 37° C. under 5% carbon dioxide atmosphere. After replacing with 20 μL of the HBSS buffer (20 mM HEPES. 55.6 mM D-glucose, 1×HBSS(−), pH 7.4-7.5), 15 μL of 17.3 μM Yo-Pro solution in the HBSS buffer was added. The plate was placed in high-throughput cellular screening system FLIPR TETRA (Molecullar Devices, LLC.) and 15 μL of 130 μM BzATP solution in the HBSS buffer was added. Measurement of fluorescence intensity by FLIPR TETRA was started. After eight minutes, 15 μL of DMSO solutions containing different concentrations of the compound of the present invention as prepared by dilution with the HBSS buffer were dispensed to each well through the built-in automatic dispenser, and the measurement of fluorescence intensity was continued for 20 minutes. The maximum fluorescence intensity without the compound of the present invention is calculated as 0% inhibition and the maximum fluorescence intensity when the reference compound was added is calculated as 100% inhibition. Changing values of fluorescence intensity by the compound of the present invention were calculated by difference between maximum and minimum fluorescence intensity for 20 minutes. Inhibition ratios (%) were calculated from the following equation:
[formula] IC50 was calculated using logistic approximation.

Row | Compound | IC50
1 | O=c1nc(-c2cccc(C(F)(F)F)c2Cl)n(Cc2ccccc2)cc1F [II-031] | 58 nM
2 | COc1cn(Cc2ccccc2)c(-c2cccc(C(F)(F)F)c2Cl)cc1=O [Compound I-015] | 44 nM
3 | O=c1cc(-c2cccc(C(F)(F)F)c2Cl)n(Cc2ccccc2F)cc1Br [Compound I-001] | 67 nM
4 | CC(=O)Nc1cn(Cc2ccccc2)c(-c2cccc(C(F)(F)F)c2Cl)nc1=O [II-046] | 180 nM
5 | O=c1cnn(Cc2ccccc2)c(-c2cccc(C(F)(F)F)c2Cl)c1 [III-002] | 110 nM
6 | O=c1cc(-c2cccc(C(F)(F)F)c2Cl)n(Cc2ccccc2)cn1 [III-001] | 110 nM
7 | O=c1ccn(Cc2ccc(F)cc2)c(-c2cccc(Cl)c2Cl)c1 [Compound I-020] | 810 nM
8 | COc1cn(Cc2ccccc2)c(-c2ccc(Cl)cc2Cl)nc1=O [II-082] | 190 nM

Same assay, conditions: antagonistic activity for the human P2X7 receptor, 1321N1 cell transfected with the human P2X7 receptor gene, Yo-Pro fluorescence, class symbols

Row | Compound | IC50
9 | O=c1ccn(Cc2ccccc2OCc2ccccc2)c(-c2cccc(C(F)(F)F)c2Cl)c1 [Compound I-049] | 100 to 500 nM
10 | COc1cn(Cc2ccccc2C)c(-c2ccc(Cl)cc2)nc1=O [II-060] | 1000 to 10000 nM
11 | N#Cc1cn(Cc2ccccc2F)c(-c2cccc(C(F)(F)F)c2Cl)cc1=O [Compound I-002] | < 50 nM
12 | COc1cn(Cc2ccccc2C)c(-c2ccccc2Cl)nc1=O [II-074] | 500 to 1000 nM
13 | COc1cn(Cc2ccccc2CO)c(-c2cccc(C(F)(F)F)c2Cl)nc1=O [II-015] | < 50 nM
14 | O=c1ccn(Cc2ccccc2OC(F)(F)F)c(-c2cccc(C(F)(F)F)c2Cl)c1 [Compound I-030] | 500 to 1000 nM
15 | O=c1ccn(Cc2ccccc2C(F)(F)F)c(-c2cccc(C(F)(F)F)c2Cl)c1 [Compound I-033] | 100 to 500 nM
16 | O=c1ccn(Cc2ccccc2)c(-c2cccc(Cl)c2Cl)c1 [Compound I-021] | 500 to 1000 nM
17 | COc1cn(Cc2ccccc2C)c(-c2cccc3ncccc23)nc1=O [II-002] | 1000 to 10000 nM
18 | COc1cccc(-c2nc(=O)c(OC)cn2Cc2ccccc2)c1Cl [II-079] | 1000 to 10000 nM
19 | Cc1ccccc1Cn1ccc(=O)cc1-c1cccc(Cl)c1Cl [Compound I-016] | 100 to 500 nM
20 | O=c1ccn(Cc2ccc(C(F)(F)F)o2)c(-c2cccc(C(F)(F)F)c2Cl)c1 [Compound I-067] | 500 to 1000 nM
21 | Cc1ccc(Cn2ccc(=O)cc2-c2cccc(C(F)(F)F)c2Cl)cc1 [Compound I-029] | 1000 to 10000 nM
22 | COc1cn(Cc2ccccc2C)c(-c2ccccc2)nc1=O [II-058] | 1000 to 10000 nM
23 | N#CCOc1cn(Cc2ccccc2)c(-c2cccc(C(F)(F)F)c2Cl)nc1=O [II-022] | < 50 nM
24 | CNc1cn(Cc2ccccc2)c(-c2cccc(C(F)(F)F)c2Cl)nc1=O [II-044] | 100 to 500 nM
25 | O=c1ccn(Cc2ccc3ccccc3c2)c(-c2cccc(C(F)(F)F)c2Cl)c1 [Compound I-051] | 500 to 1000 nM
26 | O=c1ccn(Cc2cccc(C(F)(F)F)c2)c(-c2cccc(C(F)(F)F)c2Cl)c1 [Compound I-050] | 1000 to 10000 nM
27 | COc1cn(Cc2ccc(F)cc2)c(-c2cccc(C(F)(F)F)c2Cl)nc1=O [II-004] | 100 to 500 nM
28 | O=c1ccn(Cc2cccc(OC(F)(F)F)c2)c(-c2cccc(C(F)(F)F)c2Cl)c1 [Compound I-031] | 1000 to 10000 nM
29 | COc1ccccc1Cn1cc(C#N)c(=O)nc1-c1cccc(C(F)(F)F)c1Cl [II-092] | < 50 nM

Row | Compound | IC50
30 | O=c1ccn(Cc2ccccc2-c2cccs2)c(-c2cccc(C(F)(F)F)c2Cl)c1 [Compound I-045] | 1000 to 10000 nM
31 | COc1ccccc1Cn1cc(OC)c(=O)nc1-c1cccc(C(F)(F)F)c1Cl [II-087] | < 50 nM
32 | O=C(c1ccccc1)c1cccc(Cn2ccc(=O)cc2-c2cccc(C(F)(F)F)c2Cl)c1 [Compound I-069] | 500 to 1000 nM
33 | COc1cn(Cc2cccc3ncccc23)c(-c2cccc(C(F)(F)F)c2Cl)nc1=O [II-052] | < 50 nM
34 | COc1cn(Cc2ccccc2)c(-c2cccc(F)c2F)nc1=O [II-078] | 500 to 1000 nM
35 | COc1cccc(Cn2ccc(=O)cc2-c2cccc(C(F)(F)F)c2Cl)n1 [Compound I-032] | 500 to 1000 nM
36 | COc1cn(Cc2ccccc2)c(-c2ccc(Cl)c(Cl)c2)nc1=O [II-084] | 100 to 500 nM
37 | NCCOc1cn(Cc2ccccc2)c(-c2cccc(C(F)(F)F)c2Cl)nc1=O [II-027] | 500 to 1000 nM
38 | CC(C)Oc1cn(Cc2ccccc2)c(-c2cccc(C(F)(F)F)c2Cl)nc1=O [II-021] | 50 to 100 nM
39 | COc1cn(Cc2ccc(Cl)cc2)c(-c2cccc(C(F)(F)F)c2Cl)nc1=O [II-096] | 100 to 500 nM
40 | N#CCn1cc(-c2ccccc2)c(=O)nc1-c1cccc(C(F)(F)F)c1Cl [II-050] | 100 to 500 nM
41 | COc1cn(Cc2ccc(C#N)cc2)c(-c2cccc(C(F)(F)F)c2Cl)nc1=O [II-014] | 1000 to 10000 nM
42 | COc1cn(Cc2ccccc2C)c(-c2cccc(C(F)(F)F)c2)nc1=O [II-065] | 100 to 500 nM
43 | COc1cn(Cc2ccccc2C)c(-c2ccc(C(F)(F)F)cc2)nc1=O [II-066] | 1000 to 10000 nM
44 | O=c1ccn(Cc2ccc(Cl)cc2)c(-c2cccc(C(F)(F)F)c2Cl)c1 [Compound I-041] | 1000 to 10000 nM
45 | N#Cc1cccc(Cn2ccc(=O)cc2-c2cccc(C(F)(F)F)c2Cl)c1 [Compound I-024] | 500 to 1000 nM
46 | O=c1ccn(Cc2ccc(F)cc2)c(-c2cccc(C(F)(F)F)c2Cl)c1 [Compound I-017] | 500 to 1000 nM
47 | O=c1cc(-c2cccc(C(F)(F)F)c2Cl)n(Cc2ccccc2)cc1Br [Compound I-008] | 100 to 500 nM
48 | Cc1ccccc1Cn1cc(OCC(F)(F)F)c(=O)nc1-c1cccc(C(F)(F)F)c1Cl [II-089] | < 50 nM
49 | O=c1ccn(Cc2ccon2)c(-c2cccc(C(F)(F)F)c2Cl)c1 [Compound I-065] | 1000 to 10000 nM
50 | COc1cn(Cc2ccccc2C(F)(F)F)c(-c2cccc(C(F)(F)F)c2Cl)nc1=O [II-099] | < 50 nM

Row | Compound | IC50
51 | Cc1ccccc1Cn1cc(OCC#N)c(=O)nc1-c1cccc(C(F)(F)F)c1Cl [II-090] | < 50 nM
52 | O=c1cc(-c2cccc(C(F)(F)F)c2Cl)n(Cc2cccc(Cl)c2)cc1Br [Compound I-011] | 100 to 500 nM
53 | O=c1ccn(Cc2ccc(C(F)(F)F)cc2)c(-c2cccc(C(F)(F)F)c2Cl)c1 [Compound I-052] | 1000 to 10000 nM
54 | CS(=O)(=O)Nc1cn(Cc2ccccc2)c(-c2cccc(C(F)(F)F)c2Cl)nc1=O [II-047] | 100 to 500 nM
55 | COc1cn(Cc2cccc(CO)c2)c(-c2cccc(C(F)(F)F)c2Cl)nc1=O [II-019] | 50 to 100 nM
56 | O=c1ccn(Cc2cccc3c2OCCCO3)c(-c2cccc(C(F)(F)F)c2Cl)c1 [Compound I-046] | 100 to 500 nM
57 | O=c1ccn(Cc2cccc(-c3ccccc3)c2)c(-c2cccc(C(F)(F)F)c2Cl)c1 [Compound I-061] | 1000 to 10000 nM
58 | N#Cc1cccc(Cn2cc(N)c(=O)cc2-c2cccc(C(F)(F)F)c2Cl)c1 [Compound I-006] | 500 to 1000 nM
59 | CC1(COc2cn(Cc3ccccc3)c(-c3cccc(C(F)(F)F)c3Cl)nc2=O)COC1 [II-029] | 100 to 500 nM
60 | COc1cn(Cc2ccccc2)c(-c2ccc(C(F)(F)F)cc2Cl)nc1=O [II-088] | 500 to 1000 nM
61 | COc1cn(Cc2ccccc2OC(F)(F)F)c(-c2cccc(C(F)(F)F)c2Cl)nc1=O [II-097] | < 50 nM
62 | N#Cc1cccc(Cn2cc(Br)c(=O)cc2-c2cccc(C(F)(F)F)c2Cl)c1 [Compound I-003] | 100 to 500 nM
63 | O=c1ccn(CCc2ccccc2)c(-c2cccc(C(F)(F)F)c2Cl)n1 [II-076] | 1000 to 10000 nM
64 | COc1cn(Cc2cccc(C#N)c2)c(-c2cccc(C(F)(F)F)c2Cl)cc1=O [Compound I-007] | 100 to 500 nM
65 | NC(=O)c1cn(Cc2ccccc2)c(-c2cccc(C(F)(F)F)c2Cl)nc1=O [II-038] | 500 to 1000 nM
66 | O=C(Nc1cn(Cc2ccccc2)c(-c2cccc(C(F)(F)F)c2Cl)nc1=O)OCC(F)(F)F [II-054] | 100 to 500 nM
67 | COc1cn(Cc2ccccc2C)c(C2=CCCCC2)nc1=O [II-057] | 1000 to 10000 nM
68 | COc1cn(Cc2ccc(F)cc2C)c(-c2cccc(C(F)(F)F)c2Cl)nc1=O [II-007] | 50 to 100 nM
69 | O=c1nc(-c2cccc(C(F)(F)F)c2Cl)n(Cc2ccccc2)cc1OCc1ccccc1 [II-023] | < 50 nM
70 | N#Cc1ccc(Cn2ccc(=O)cc2-c2cccc(C(F)(F)F)c2Cl)cc1 [Compound I-025] | 1000 to 10000 nM
